Where two headings read alike, the source gives them in different places. Where no end group is shown, it is not given here. The star is where a group is joined. CH2Cl = ClC*
Tests used:
thrombin [1] = target: T1, thrombin (Homo sapiens, UniProt P00734); assay: Inactivation of human thrombin, residual esterase activity; type: biochemical; details: 4.5×10^-7 M thrombin + 2.25×10^-7 M label; theoretical value 50%
thrombin [2] = target: T1, thrombin; assay: Inactivation of human thrombin, fibrinogen clotting assay; type: biochemical; details: 4.5×10^-7 M thrombin + 2.25×10^-7 M label; theoretical value 50%
thrombin [3] = target: T1, thrombin; design: Thrombin itself is generated from a pro-enzyme, prothrombin, by the enzymatic action of another proteolytic enzyme, factor Xa; details: Bajusz et al, page 603; reversible inhibitor; cited from earlier work
thrombin [4] = target: T1, thrombin; design: Thrombin itself is generated from a pro-enzyme, prothrombin, by the enzymatic action of another proteolytic enzyme, factor Xa; details: cited from earlier work; for t1/2, half time for the pseudo-first-order inactivation of thrombin / kapp /[I], apparent first order rate constant for inactivation of thrombin / concentration of affinity label: pH 7.0, 25° C; for Ki / k2 / k2 /Ki: Table IV, ref (a) Kettner and Shaw

Row | Molecule | kapp /[I], apparent first order rate constant for inactivation of thrombin / concentration of affinity label (thrombin [4]) | Ki (thrombin [4]) | k2 (thrombin [4]) | k2 /Ki (thrombin [4]) | further results
1 | N=C(N)NCCC[C@H](NC(=O)[C@@H]1CCCN1C(=O)[C@H](N)Cc1ccccc1)C(=O)CCl [D-Phe-Pro-ArgCH2 Cl, D-Phe-Pro-Arg-CH2 Cl.2HCl] |  |  |  |  | inactivation of human thrombin by esterase assay (thrombin [1]): 47%; inactivation of human thrombin by clotting assay (thrombin [2]): 45%
2 | D-Phe-Pro-Arg-H |  |  |  |  | Ki (thrombin [3]): 0.075 µM
3 | Glu-Gly-ArgCH2 Cl | 2.20 (min^-1 M^-1) × 10^-4 |  |  |  | t1/2, half time for the pseudo-first-order inactivation of thrombin (thrombin [4]; inhibitor 1.0 × 10^-6 M): 31 min
4 | Gly-Val-ArgCH2 Cl | 1.90 (min^-1 M^-1) × 10^-4 | 13 µM | 0.30 min⁻¹ | 383 M⁻¹ s⁻¹ | t1/2, half time for the pseudo-first-order inactivation of thrombin (thrombin [4]; inhibitor 2.0 × 10^-6 M): 18 min
5 | Ile-Pro-ArgCH2 Cl | 42.00 (min^-1 M^-1) × 10^-4 |  |  |  | t1/2, half time for the pseudo-first-order inactivation of thrombin (thrombin [4]; inhibitor 7.5 × 10^-8 M): 22 min
6 | Phe-Ala-ArgCH2 Cl |  | 2.9 µM | 0.26 min⁻¹ | 1500 M⁻¹ s⁻¹ | 
7 | Phe-Ala-LysCH2 Cl |  | 37 µM | 0.34 min⁻¹ | 150 M⁻¹ s⁻¹ | 
8 | Pro-Gly-ArgCH2 Cl | 1.20 (min^-1 M^-1) × 10^-4 |  |  |  | t1/2, half time for the pseudo-first-order inactivation of thrombin (thrombin [4]; inhibitor 1.0 × 10^-6 M): 57 min
9 | Pro-Phe-ArgCH2 Cl | 0.04 (min^-1 M^-1) × 10^-4 |  |  |  | t1/2, half time for the pseudo-first-order inactivation of thrombin (thrombin [4]; inhibitor 5.0 × 10^-5 M): 35 min
10 | Val-Ile-Pro-ArgCH2 Cl (VIPR-CH2Cl) | 73.00 (min^-1 M^-1) × 10^-4 |  |  |  | t1/2, half time for the pseudo-first-order inactivation of thrombin (thrombin [4]; inhibitor 7.5 × 10^-8 M): 13 min
11 | Val-Pro-ArgCH2 Cl | 54.00 (min^-1 M^-1) × 10^-4 | 0.67 µM | 0.31 min⁻¹ | 6670 M⁻¹ s⁻¹ | t1/2, half time for the pseudo-first-order inactivation of thrombin (thrombin [4]; inhibitor 7.5 × 10^-8 M): 17 min
12 | Val-Val-ArgCH2 Cl | 2.10 (min^-1 M^-1) × 10^-4 |  |  |  | t1/2, half time for the pseudo-first-order inactivation of thrombin (thrombin [4]; inhibitor 1.0 × 10^-6 M): 33 min
